Measurements as given in patent US4100346A, “Certain 7(o-amino-methyl- or methylaminomethylphenyl- or cyclohexadienyl- or thienylacetamide)-3[1-carboxymethyl-(or ethyl- or propyl-)-tetrazol-5-ylthiomethyl]-3-cephem-4-carboxylic acids” (Bristol-Myers Company, priority 1976, dated 1978).
Converted amounts (≈) assume the structure as drawn. Read-outs that look alike come from different tables or passages of the source.

Key:
Listeria monocytogenes = experiment: Growth inhibitory activity, antibiotic dilution technique; conditions: read-out: Minimum inhibitory concentration
Klebsiella pneumoniae [1] = experiment: Effect of inoculum size on susceptibility of Enterobacteriaceae
Enterobacter cloacae [2] = experiment: Intramuscular treatment of systemically infected mice; assay type: in vivo; conditions: mice, intramuscular; compared with control cephalosporins
Description: Treatment of Systemically Infected Mice. The procedures were identical with those published previously [Leitner et al., BL-S640, a Cephalosporin With a Broad Spectrum of Antibacterial Activity: Bioavailability and Therapeutic Properties in Rodents, Antimicrob. Agents Chemother.
(a) the hog gastric mucin used in infections with Staphylococcus aureus No. 2 was purchased from American Laboratories, Inc., Omaha, Neb.

Klebsiella pneumoniae [3] = experiment: Minimum growth inhibitory and bactericidal concentrations for Enterobacteriaceae; assay type: cell-based; conditions: for MBC: read-out: MBC, minimum bactericidal concentration; for MIC: read-out: MIC, Minimum growth inhibitory concentration
Description: (§1) Miscellaneous. Methods for determining bactericidal activity and susceptibility to cell-free β-lactamase were those previously used; Leitner et al., BL-S640, A Cephalosporin With a Broad Spectrum of Antibacterial Activity: Properties in vitro, Antimicrob. Agents Chemother. 7:298-305 (1975).
(§2) *MIC, Minimum growth inhibitory concentration; MBC, minimum bactericidal
(§3) concentration; expressed as micrograms per milliliter. The inoculum was […]

Enterobacter cloacae [4] = experiment: as above; assay type: cell-based; conditions: for MBC: read-out: MBC, minimum bactericidal concentration; for MIC: read-out: MIC, Minimum growth inhibitory concentration
Description: as §1, §2, §3

Escherichia coli = experiment: as above; assay type: cell-based; conditions: for MBC: read-out: MBC, minimum bactericidal concentration; for MIC: read-out: MIC, Minimum growth inhibitory concentration
Description: as §1, §2, §3

Enterobacter aerogenes = experiment: as above; assay type: cell-based; conditions: Klebsiella aerogenes, inoculum 10^4 cells; for MBC: read-out: MBC, minimum bactericidal concentration; for MIC: read-out: MIC, Minimum growth inhibitory concentration
Description: as §1, §2, §3

Proteus rettgeri [5] = experiment: as above; assay type: cell-based; conditions: Providencia rettgeri, inoculum 10^4 cells; for MBC: read-out: MBC, minimum bactericidal concentration; for MIC: read-out: MIC, Minimum growth inhibitory concentration
Description: as §1, §2, §3

Proteus vulgaris = experiment: as above; assay type: cell-based; conditions: inoculum 10^4 cells; for MIC: read-out: MIC, Minimum growth inhibitory concentration; for MBC: read-out: MBC, minimum bactericidal concentration
Description: as §1, §2, §3

Proteus mirabilis = experiment: as above; assay type: cell-based; conditions: for MBC: read-out: MBC, minimum bactericidal concentration; for MIC: read-out: MIC, Minimum growth inhibitory concentration
Description: as §1, §2, §3

D. pneumoniae = experiment: MIC by Tube Dilution Technique in Nutrient Broth (Example 9 table); assay type: cell-based; conditions: Streptococcus pneumoniae; Dp-4 D. pneumoniae A9585
Description: (§4) MIC (mcg./ml.) by Tube Dilution Technique in Nutrient Broth.

K. pneumoniae = experiment: as above; assay type: cell-based; conditions: Klebsiella pneumoniae
Description: as §4

S. aureus = experiment: as above; assay type: cell-based; conditions: Staphylococcus aureus
Description: as §4

P. morganii = experiment: as above; assay type: cell-based; conditions: Morganella morganii; Pg-8 P. morganii A15153
Description: as §4

S. pyogenes = experiment: as above; assay type: cell-based; conditions: Streptococcus pyogenes; Sp-3 S. pyogenes A9604
Description: as §4

S. marcescens = experiment: as above; assay type: cell-based; conditions: Serratia marcescens; Sm-1 S. marcescens A20019
Description: as §4

P. aeruginosa = experiment: as above; assay type: cell-based; conditions: Pseudomonas aeruginosa; P. aeruginosa A9843
Description: as §4

Proteus rettgeri [6] = experiment: Effect of inoculum size on susceptibility of Enterobacteriaceae; conditions: Providencia rettgeri
[7] = Klebsiella pneumoniae strain 1, inoculum 10^4 cells
[8] = Klebsiella pneumoniae strain 2, inoculum 10^4 cells
[9] = Klebsiella pneumoniae strain 3, inoculum 10^4 cells
[10] = Klebsiella pneumoniae strain 4, inoculum 10^4 cells
[11] = Klebsiella pneumoniae strain 5, inoculum 10^4 cells
[12] = Klebsiella pneumoniae strain 6, inoculum 10^4 cells
[13] = Enterobacter cloacae strain 3, inoculum 10^4 cells
[14] = Enterobacter cloacae strain 4, inoculum 10^4 cells
[15] = Enterobacter cloacae strain 8, inoculum 10^4 cells
[16] = Escherichia coli strain 1, inoculum 10^4 cells
[17] = Escherichia coli strain 2, inoculum 10^4 cells
[18] = Escherichia coli strain 3, inoculum 10^4 cells
[19] = Escherichia coli strain 4, inoculum 10^4 cells
[20] = Escherichia coli strain 5, inoculum 10^4 cells
[21] = Escherichia coli strain 6, inoculum 10^4 cells
[22] = Enterobacter aerogenes strain 1
[23] = Enterobacter aerogenes strain 2
[24] = Enterobacter aerogenes strain 3
[25] = Proteus vulgaris, Proteus vulgaris strain 2
[26] = Proteus vulgaris, Proteus vulgaris strain 4
[27] = Proteus mirabilis strain 1, inoculum 10^4 cells
[28] = Proteus mirabilis strain 2, inoculum 10^4 cells
[29] = Proteus mirabilis strain 3, inoculum 10^4 cells
[30] = Proteus mirabilis strain 4, inoculum 10^4 cells
[31] = Proteus mirabilis strain 5, inoculum 10^4 cells

Structure (SMILES): NCc1ccccc1CC(=O)N[C@@H]1C(=O)N2C(C(=O)O)=C(CSc3nnnn3CC(=O)O)CS[C@H]12 [Example 1]
- MIC (Listeria monocytogenes): 10.8 µg/mL (≈ 20.8 µM)
- MIC (Klebsiella pneumoniae [1]; read-out: Minimum Inhibitory Concentration, Klebsiella pneumoniae strain 1, A, Inoculum of 10^2 organisms): 0.5 µg/mL (≈ 0.962 µM)
- MIC (Klebsiella pneumoniae [1]; read-out: Minimum Inhibitory Concentration, Klebsiella pneumoniae strain 1, B, Inoculum of 10^6 organisms): 1 µg/mL (≈ 1.92 µM)
- MIC (Klebsiella pneumoniae [1]; read-out: Minimum Inhibitory Concentration, Klebsiella pneumoniae strain 2, A, Inoculum of 10^2 organisms): 0.25 µg/mL (≈ 0.481 µM)
- MIC (Klebsiella pneumoniae [1]; read-out: Minimum Inhibitory Concentration, Klebsiella pneumoniae strain 2, B, Inoculum of 10^6 organisms): 2 µg/mL (≈ 3.85 µM)
- MIC (Klebsiella pneumoniae [1]; read-out: Minimum Inhibitory Concentration, Klebsiella pneumoniae strain 3, A, Inoculum of 10^2 organisms): 0.5 µg/mL (≈ 0.962 µM)
- MIC (Klebsiella pneumoniae [1]; read-out: Minimum Inhibitory Concentration, Klebsiella pneumoniae strain 3, B, Inoculum of 10^6 organisms): 4 µg/mL (≈ 7.7 µM)
- MIC (Klebsiella pneumoniae [1]; read-out: Minimum Inhibitory Concentration, Klebsiella pneumoniae strain 4, A, Inoculum of 10^2 organisms): 0.5 µg/mL (≈ 0.962 µM)
- MIC (Klebsiella pneumoniae [1]; read-out: Minimum Inhibitory Concentration, Klebsiella pneumoniae strain 4, B, Inoculum of 10^6 organisms): 4 µg/mL (≈ 7.7 µM)
- MIC (Klebsiella pneumoniae [1]; read-out: Minimum Inhibitory Concentration, Klebsiella pneumoniae strain 5, A, Inoculum of 10^2 organisms): 0.5 µg/mL (≈ 0.962 µM)
- MIC (Klebsiella pneumoniae [1]; read-out: Minimum Inhibitory Concentration, Klebsiella pneumoniae strain 5, B, Inoculum of 10^6 organisms): 2 µg/mL (≈ 3.85 µM)
- MIC (Klebsiella pneumoniae [1]; read-out: Minimum Inhibitory Concentration, Klebsiella pneumoniae strain 6, A, Inoculum of 10^2 organisms): 0.25 µg/mL (≈ 0.481 µM)
- MIC (Klebsiella pneumoniae [1]; read-out: Minimum Inhibitory Concentration, Klebsiella pneumoniae strain 6, B, Inoculum of 10^6 organisms): 4 µg/mL (≈ 7.7 µM)
- efficacy against infections with Enterobacter cloacae (Enterobacter cloacae [2]): alone was effective
- MBC (Klebsiella pneumoniae [3]; [7]): 0.25 µg/mL (≈ 0.481 µM)
- MIC (Klebsiella pneumoniae [3]; [7]): 0.25 µg/mL (≈ 0.481 µM)
- MBC (Klebsiella pneumoniae [3]; [8]): 0.25 µg/mL (≈ 0.481 µM)
- MIC (Klebsiella pneumoniae [3]; [8]): 0.25 µg/mL (≈ 0.481 µM)
- MBC (Klebsiella pneumoniae [3]; [9]): 0.25 µg/mL (≈ 0.481 µM)
- MIC (Klebsiella pneumoniae [3]; [9]): 0.25 µg/mL (≈ 0.481 µM)
- MBC (Klebsiella pneumoniae [3]; [10]): 0.5 µg/mL (≈ 0.962 µM)
- MIC (Klebsiella pneumoniae [3]; [10]): 0.5 µg/mL (≈ 0.962 µM)
- MBC (Klebsiella pneumoniae [3]; [11]): 0.5 µg/mL (≈ 0.962 µM)
- MIC (Klebsiella pneumoniae [3]; [11]): 0.5 µg/mL (≈ 0.962 µM)
- MBC (Klebsiella pneumoniae [3]; [12]): 1 µg/mL (≈ 1.92 µM)
- MIC (Klebsiella pneumoniae [3]; [12]): 0.5 µg/mL (≈ 0.962 µM)
- MBC (Enterobacter cloacae [4]; [13]): 8 µg/mL (≈ 15.4 µM)
- MIC (Enterobacter cloacae [4]; [13]): 4 µg/mL (≈ 7.7 µM)
- MBC (Enterobacter cloacae [4]; [14]): 63 µg/mL (≈ 121 µM)
- MIC (Enterobacter cloacae [4]; [14]): 8 µg/mL (≈ 15.4 µM)
- MBC (Enterobacter cloacae [4]; [15]): 63 µg/mL (≈ 121 µM)
- MIC (Enterobacter cloacae [4]; [15]): 63 µg/mL (≈ 121 µM)
- MBC (Escherichia coli; [16]): 0.5 µg/mL (≈ 0.962 µM)
- MIC (Escherichia coli; [16]): 0.5 µg/mL (≈ 0.962 µM)
- MBC (Escherichia coli; [17]): 16 µg/mL (≈ 30.8 µM)
- MIC (Escherichia coli; [17]): 16 µg/mL (≈ 30.8 µM)
- MBC (Escherichia coli; [18]): 0.5 µg/mL (≈ 0.962 µM)
- MIC (Escherichia coli; [18]): 0.25 µg/mL (≈ 0.481 µM)
- MBC (Escherichia coli; [19]): 0.5 µg/mL (≈ 0.962 µM)
- MIC (Escherichia coli; [19]): 0.5 µg/mL (≈ 0.962 µM)
- MBC (Escherichia coli; [20]): 1 µg/mL (≈ 1.92 µM)
- MIC (Escherichia coli; [20]): 1 µg/mL (≈ 1.92 µM)
- MBC (Escherichia coli; [21]): 1 µg/mL (≈ 1.92 µM)
- MIC (Escherichia coli; [21]): 1 µg/mL (≈ 1.92 µM)
- MBC (Enterobacter aerogenes; [22]): 2 µg/mL (≈ 3.85 µM)
- MIC (Enterobacter aerogenes; [22]): 2 µg/mL (≈ 3.85 µM)
- MBC (Enterobacter aerogenes; [23]): 2 µg/mL (≈ 3.85 µM)
- MIC (Enterobacter aerogenes; [23]): 2 µg/mL (≈ 3.85 µM)
- MBC (Enterobacter aerogenes; [24]): 16 µg/mL (≈ 30.8 µM)
- MIC (Enterobacter aerogenes; [24]): 8 µg/mL (≈ 15.4 µM)
- MBC (Proteus rettgeri [5]; Proteus rettgeri strain 2): 0.13 µg/mL (≈ 0.25 µM)
- MIC (Proteus rettgeri [5]; Proteus rettgeri strain 2): 0.063 µg/mL (≈ 0.121 µM)
- MBC (Proteus rettgeri [5]; Proteus rettgeri strain 3): 63 µg/mL (≈ 121 µM)
- MIC (Proteus rettgeri [5]; Proteus rettgeri strain 3): 0.25 µg/mL (≈ 0.481 µM)
- MIC (Proteus vulgaris; Proteus vulgaris strain 1): 0.5 µg/mL (≈ 0.962 µM)
- MBC (Proteus vulgaris; Proteus vulgaris, Proteus vulgaris strain 1): 1 µg/mL (≈ 1.92 µM)
- MBC (Proteus vulgaris; [25]): 0.5 µg/mL (≈ 0.962 µM)
- MIC (Proteus vulgaris; [25]): 0.5 µg/mL (≈ 0.962 µM)
- MBC (Proteus vulgaris; [26]): 1 µg/mL (≈ 1.92 µM)
- MIC (Proteus vulgaris; [26]): 0.5 µg/mL (≈ 0.962 µM)
- MBC (Proteus mirabilis; [27]): 1 µg/mL (≈ 1.92 µM)
- MIC (Proteus mirabilis; [27]): 0.5 µg/mL (≈ 0.962 µM)
- MBC (Proteus mirabilis; [28]): 0.5 µg/mL (≈ 0.962 µM)
- MIC (Proteus mirabilis; [28]): 0.5 µg/mL (≈ 0.962 µM)
- MBC (Proteus mirabilis; [29]): 0.5 µg/mL (≈ 0.962 µM)
- MIC (Proteus mirabilis; [29]): 0.5 µg/mL (≈ 0.962 µM)
- MBC (Proteus mirabilis; [30]): 0.5 µg/mL (≈ 0.962 µM)
- MIC (Proteus mirabilis; [30]): 0.25 µg/mL (≈ 0.481 µM)
- MBC (Proteus mirabilis; [31]): 0.5 µg/mL (≈ 0.962 µM)
- MIC (Proteus mirabilis; [31]): 0.5 µg/mL (≈ 0.962 µM)
- MIC (D. pneumoniae): 0.16 µg/mL (≈ 0.308 µM)
- MIC (K. pneumoniae; Kp-3 K. pneumoniae A9977): 0.2 µg/mL (≈ 0.385 µM)
- MIC (K. pneumoniae; Kp-4 K. pneumoniae A15130): 1.6 µg/mL (≈ 3.08 µM)
- MIC (S. aureus; Sa-2 S. aureus +50% serum): > 3.1 µg/mL
- MIC (S. aureus; Sa-2 S. aureus Smith A9537): 3.1 µg/mL (≈ 5.97 µM)
- MIC (S. aureus; Sa-11 S. aureus BX-1633 A9606): 3.1 µg/mL (≈ 5.97 µM)
- MIC (S. aureus; Sa-44 S. aureus A15097): 6.3 µg/mL (≈ 12.1 µM)
- MIC (P. morganii): 6.3 µg/mL (≈ 12.1 µM)
- MIC (S. pyogenes): 0.16 µg/mL (≈ 0.308 µM)
- MIC (S. marcescens): > 100 µg/mL
- MIC (P. aeruginosa): > 100 µg/mL
- MIC (Proteus rettgeri [6]; read-out: Minimum Inhibitory Concentration, Proteus rettgeri strain 1, A, Inoculum of 10^2 organisms): 0.13 µg/mL (≈ 0.25 µM)
- MIC (Proteus rettgeri [6]; read-out: Minimum Inhibitory Concentration, Proteus rettgeri strain 1, B, Inoculum of 10^6 organisms): 125 µg/mL (≈ 241 µM)
- MIC (Proteus rettgeri [6]; read-out: Minimum Inhibitory Concentration, Proteus rettgeri strain 2, A, Inoculum of 10^2 organisms): 0.13 µg/mL (≈ 0.25 µM)
- MIC (Proteus rettgeri [6]; read-out: Minimum Inhibitory Concentration, Proteus rettgeri strain 2, B, Inoculum of 10^6 organisms): 63 µg/mL (≈ 121 µM)
- MIC (Proteus rettgeri [6]; read-out: Minimum Inhibitory Concentration, Proteus rettgeri strain 3, A, Inoculum of 10^2 organisms): 0.25 µg/mL (≈ 0.481 µM)
- MIC (Proteus rettgeri [6]; read-out: Minimum Inhibitory Concentration, Proteus rettgeri strain 3, B, Inoculum of 10^6 organisms): > 250 µg/mL
